For ten compounds, IC50 results are on record in patent publication US20260200928A1, “THERAPEUTIC COMPOUNDS” (Sanofi, priority 2022, published 2026).

In the experiment the target is T1, human IL-17A (Homo sapiens, UniProt Q16552).
T1 construct: purchased R&D Systems 7955-IL/CF
T1 sequence (Q16552 24-155): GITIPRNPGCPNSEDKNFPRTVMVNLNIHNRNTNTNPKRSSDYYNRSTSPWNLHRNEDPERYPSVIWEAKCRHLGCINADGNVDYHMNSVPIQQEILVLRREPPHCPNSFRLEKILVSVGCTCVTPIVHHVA
Kind of experiment: IL-17A AlphaLISA competition assay (block of IL-17A binding to its receptor IL-17RA). As to conditions: mean IC50 (n≥2), block of IL-17A binding to IL-17RA. An outline of the steps: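 Bead-based AlphaLISA competition in PBS with 0.05% Tween-20 and 0.1% BSA: compound first meets human IL-17A (7.5 nM stock) for 30 min, then IL-17RA/Fc (5 nM stock) for 90 min, all at room temperature, before acceptor/donor bead capture. IC50 fitted 4-parameter, DMSO and 4 μM reference inhibitor as controls; at least duplicate.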
On the technique in general: In Alpha technology, singlet oxygen from a donor bead excites a nearby acceptor bead.
In general, IC50 refers to the midpoint of a concentration-inhibition curve. As to `CC(C)n1nccc1C(=O)N[C@H](C(=O)Nc1cc([C@@H](C)NC(=O)CCC(F)(F)F)ccn1)C1CCC(F)(F)CC1` [Example 167, N—((S)-1-(4,4-difluorocyclohexyl)-2-oxo-2-((4-((R)-1-(4,4,4-trifluoro-butanamido)ethyl)pyridin-2-yl)amino)ethyl)-1-isopropyl-1H-pyrazole-5-carboxamide], the 50% inhibitory concentration (IC50) came to 222 nM.

Turning to `CC[C@H](c1ccnc(NC(=O)[C@@H](NC(=O)c2ccnn2CC)C2CCC(F)(F)CC2)c1)N1C[C@@H](C(F)(F)F)NC1=O` [Example 213, N-((S)-1-(4,4-difluorocyclohexyl)-2-oxo-2-((4-((R)-1-((S)-2-oxo-4-(trifluoromethyl)imidazolidin-1-yl)propyl)pyridin-2-yl)amino)ethyl)-1-ethyl-1H-pyrazole-5-carboxamide], the half-maximal inhibitory concentration (IC50) turned out to be 28 nM.

The compound `COC[C@H](c1ccnc(NC(=O)[C@H](COC(C)(C)C(F)(F)F)NC(=O)c2nonc2C2CC2)c1)N1C[C@@H](C(F)(F)F)NC1=O` [Example 269, 4-cyclopropyl-N-((S)-1-((4-((S)-2-methoxy-1-((S)-2-oxo-4-(trifluoromethyl)imidazolidin-1-yl)ethyl)pyridin-2-yl)amino)-1-oxo-3-((1,1,1-trifluoro-2-methylpropan-2-yl)oxy)propan-2-yl)-1,2,5-oxadiazole-3-carboxamide] returned an IC50 of 10 nM.

The compound `O=C(CCC(F)(F)F)NC(c1ccnc(NC(=O)[C@@H](NC(=O)c2ncco2)C2CCC(F)(F)CC2)c1)C1CC1` (stereo partly drawn) [Example 105, N-((1S)-2-((4-(cyclopropyl(4,4,4-trifluorobutanamido)methyl)pyridin-2-yl)amino)-1-(4,4-difluorocyclohexyl)-2-oxoethyl)oxazole-2-carboxamide] came in with an IC50 of 3340 nM.

Turning to `COCC(c1ccnc(NC(=O)[C@@H](NC(=O)c2ncccc2C)[C@H]2CC[C@H](C)CC2)c1)N1C[C@@H](C(F)(F)F)NC1=O` (stereo partly drawn) [Example 98, N-((1S)-2-((4-(2-Methoxy-1-((S)-2-oxo-4-(trifluoromethyl)imidazolidin-1-yl)ethyl)pyridin-2-yl)amino)-1-((1r,4S)-4-methylcyclohexyl)-2-oxoethyl)-3-methyl-picolinamide], the IC50 worked out at 1960 nM.

Regarding `COC[C@H](c1ccnc(NC(=O)[C@@H](NC(=O)c2nocc2C(C)C)C2CCC(F)(F)CC2)c1)N1C[C@@H](C(F)(F)F)NC1=O` [Example 188, N-((S)-1-(4,4-difluorocyclohexyl)-2-((4-((S)-2-methoxy-1-((S)-2-oxo-4-(trifluoromethyl)imidazolidin-1-yl)ethyl)pyridin-2-yl)amino)-2-oxoethyl)-4-isopropylisoxazole-3-carboxamide], the IC50 is 31 nM.

With `C[C@H]1CC[C@H]([C@H](NC(=O)c2nonc2C2CC2)C(=O)Nc2cc(CN3C[C@@H](C(F)(F)F)NC3=O)ccn2)CC1` [Example 2, 4-Cyclopropyl-N—((S)-1-((1r,4S)-4-methylcyclohexyl)-2-oxo-2-((4-(((S)-2-oxo-4-(trifluoromethyl)imidazolidin-1-yl)methyl)pyridin-2-yl)amino)ethyl)-1,2,5-oxadiazole-3-carboxamide], the IC50 worked out at 25 nM.

Turning to `CC(C)n1nccc1C(=O)N[C@H](C(=O)Nc1cc(O[C@H]2C[C@@H](C(F)(F)F)NC2=O)ccn1)[C@H]1CC[C@H](C)CC1` [Example 320, 1-isopropyl-N—((S)-1-((1r,4S)-4-methylcyclohexyl)-2-oxo-2-((4-(((3S,5S)-2-oxo-5-(trifluoromethyl)pyrrolidin-3-yl)oxy)pyridin-2-yl)amino)ethyl)-1H-pyrazole-5-carboxamide], the IC50 amounted to 604 nM.

As for `COCC(NC(=O)CCC(F)(F)F)c1ccnc(NC(=O)[C@@H](NC(=O)c2ccnn2C)C2CCC(F)(F)CC2)c1` (single isomer, unassigned) [Example 143], the IC50 came to 3230 nM.

In turn, `COCC(c1ccnc(NC(=O)[C@@H](NC(=O)c2nc(Br)ccc2C)[C@H]2CC[C@H](C)CC2)c1)N1C[C@@H](C(F)(F)F)NC1=O` (single isomer, unassigned) [Example 94] showed an IC50 of 4860 nM.
